Laboratory results from patent publication US5118686A, “Phenylpyrimidones” (Smith Kline & French Laboratories Limited, priority 1989, dated 1992).

What was measured:
[1] = tested on: U46619-induced bronchoconstriction; test: Bronchodilatation - In vivo (inhibition of U46619-induced bronchoconstriction in anaesthetised guinea-pigs); parameters: species or system guinea-pig (Dunkin Hartley strain, male); details: Cavia porcellus, iv; i.v. bolus; U46619 infused i.v. 2.5 nmol/min; peak inhibition; read-out: BD50 (dose of compound required to reduce the U46619-induced bronchoconstriction by 50%)
Description: Male guinea-pigs of the Dunkin Hartley strain (500-600g) were anaesthetised with Sagatal (pentobarbital sodium) (60 mg/kg). Airway resistance was measured using a modification of the classical Konzett-Rossler technique (J. pharm. Methods, 13, 309-315, 1985). U46619 (9,11-methanoepoxy-PGH2) was infused i.v. at a rate of 2.5 nmol/min, this produced a steady state of bronchoconstriction (approximately 120% increase from basal airway resistance). The compound under test was administered by i.v. bolus injection, and the subsequent peak inhibition of bronchoconstriction recorded.

[2] = tested on: spontaneous colonic activity (distal colon segment); test: Inhibition of spontaneous colonic activity - in vitro; parameters: species or system guinea-pig (male albino); details: Cavia porcellus; isolated distal colon, Krebs solution, 37° C.; read-out: IC50 (concentration of compound required to reduce spontaneous colonic activity by 50%)
Text: Male albino guinea-pigs (300-400g) were killed by a blow to the back of the head and exsanguinated. A 2cm long segment of the proximal part of the hypogastric loop of the distal colon was rapidly dissected out and placed in oxygenated (95% O2, 5% CO2) modified warm Krebs solution. The tissue was cleaned out with Krebs and the adjoining mesentery discarded. Cotton was then tied to each end and the colon was attached to a tissue holder in an organ bath containing modified oxygenated Krebs solution at 37° C. The other end of the tissue was tied to an isometric transducer and placed under 1 g tension. Force developed by the muscle was detected by the transducer, and recorded on a multitrace pen recorder. Spontaneous colonic activity, as assessed by the contraction distance over a five minute period, was subjected to computer analysis.
The tissues were allowed to settle at a resting tension of 1 g for 1 hour, during which time they were washed at 15 minute intervals. Three samples of pre-dose activity were taken and averaged. The tissues were then dosed and two samples of post-dose activity were taken. The lowest value was used to calculate the percentage relaxation, and log dose response curves were constructed. The tissues were washed 10 minutes after dosing and left for 15 minutes to settle prior to the next control period.
The concentration of compound required to reduce spontaneous colonic activity by 50% is given as the IC50.

SMILES	IC50 [2] [µM]	ED50 [1] [µmol/kg]
CCCOc1ccccc1-c1nc(O)cc(C#N)n1 [Example 16, 4-cyano-6-hydroxy-2-(2-propoxyphenyl)pyrimidine]		6.03
CCCOc1ccccc1-c1nc(O)cc(CC)n1 [Example 18, 4-Ethyl-6-hydroxy-2-(2-propoxyphenyl)pyrimidine]	3.3	9.7

Continued by falling IC50 [2], values first:

IC50 [2] [µM]	SMILES	ED50 [1] [µmol/kg]
3.7	CCCOc1ccccc1-c1nc(O)cc(C(=O)NCC)n1 [Example 21, N-Ethyl 6-hydroxy-2-(2-propoxyphenyl)pyrimidine-4-carboxamide]	
2.4	CCCOc1ccccc1-c1nc(NC(=O)NC)cc(=O)[nH]1 [Example 5, 6-N'-methylureido-2-(2-propoxyphenyl)pyrimidin-4[3H]-one]	8.34
0.75	CCCOc1ccccc1-c1nc(O)cc(C(N)=O)n1 [Example 15, 6-Hydroxy-2-(2-propoxyphenyl)pyrimidine-4-carboxamide]	
